Data published in US11597729B2, “Tropomyosin receptor kinase inhibitor, preparation method therefor and use thereof” (JIANGSU VCARE PHARMATECH CO., LTD., priority 2018, dated 2023).

How the values were obtained:
[1] = Metabolic stability in human liver microsomes; type: in vitro ADME
Method: Testing on Metabolic Stability of Compounds in Human Liver Microsomes
The total volume of an incubation system was 250 μL, and 50 mmol/L PBS buffer (pH=7.4) was used to prepare incubation solutions of liver microsomes from various species with a protein concentration of 0.5 mg/mL. Before the start of the incubation, 2.5 μL of a 100 μmol/L compound to be tested was mixed with 197.5 μL of the above incubation solution, pre-incubated in a 37° C. water bath for 5 min, and then added with a 50 μL reducing coenzyme II solution (5 mmol/L) that was likewise pre-incubated for 5 min to start the reaction (in the reaction system, the protein content of liver microsomes from various species was 0.5 g/L, and the final concentration of the compound to be tested was 1 μmol/L), incubated in a 37° C. water bath with shaking, and taken out at 0, 5, 15, 30, and 60 min. 600 μL of a methanol solution of mixed positive and negative internal standards with internal standards Terfenadine (positive ion internal standard, 25 ng/mL) and Tolbutamide (negative ion internal standard, 50 ng/mL) was immediately added to terminate the reaction. The incubation solution after termination was shaken for 2 min and centrifuged (4° C., 16000 r/min) for 10 min, and the supernatant was taken for LC-MS/MS detection to quantitatively analyze the remaining amount of the parent drug. (DMSO<0.1%).
The concentration of the compound at 0 min incubation was regarded as 100%, and the concentrations at other incubation time points were converted into the remaining percentages. The natural logarithm of the remaining percentage at each time point was linearly regressed against the incubation time, and the slope k was calculated. According to the formula T1/2=−0.693/k, the in vitro half-life was calculated. Clearance in liver microsomes (CLint (μL/min/mg protein)=Ln (2)*1000/T1/2 (min)/Protein Conc(mg/ml)).
Test data of metabolic stability of the compounds of the present invention in human liver microsomes are listed in detail in table 3: […]

BaF3-tel-NTRK1 = assay: Growth inhibition test, CellTiter-Glo, tel-NTRK1-BaF3 cells; type: cell-based; settings: 72 hours incubation, read-out: Cell GI50 BaF3-tel-NTRK1
Method: (§1) Growth Inhibition Test for Tel-NTRK1-BaF3 and BaF3-LMNA-NTRK1 Cells
(§2) In this experiment, the CellTiter-Glo cell proliferation fluorescence assay was used to test the growth inhibitory effect of a compound on tel-NTRK1-BaF3 and BaF3-LMNA-NTRK1 transgenic cells, and the half maximal growth inhibitory concentration GI50 of the compound on the cells was obtained.
(§3) A compound to be tested was dissolved in DMSO to formulate 10 mM of a mother solution. The mother solution was 3× diluted to 10 mM, 3.333 mM, 1.111 mM, 0.370 mM, 0.123 mM, 0.041 mM, 0.014 mM, 0.005 mM, and 0.002 mM. The prepared solutions were each stored in a 0.5 ml sterilized dorft tube (Corning, USA). In addition, an equal volume of DMSO solvent was used as a blank control. With 10 concentration gradients, the plate was stored in vacuum at −20° C.
The tel-NTRK1-BaF3 and BaF3-LMNA-NTRK1 cell lines were cultured with RPMI 1640 (Corning, N.Y., USA)+10% fetal bovine serum (Gibico, Invitrogen, USA). After the cells were thawed, they were cultured for two generations to be tested.
(§4) Logarithmic growth phase cells (2000-2500 cells/well) were inoculated in a 12×8 96-well white opaque cell culture plate (Corning 3570, NY, USA) in a volume of 100 μL per well, and a drug was added to the cell plate (0.1 μL/well) at the final concentration of the compound of 10 μM, 3.3 μM, 1.1 μM, 0.37 μM, 0.12 IM, 0.04 μM, 0.014 IM, 0.005 μM, and 0.002 μM (0.4 uL of the drug solution was added to 400 ul of the cell homogenate, and then mixed uniformly, and the resulting mixture was added at 100 ul per well). The plate was incubated at 37° C. in a 5% CO2 incubator for 72 hours, and then 20 μL CellTiter-Glo cell proliferation fluorescence assay reagent was added. The plate was allowed to stand for 10 min, and read in the Envision Plate-Reader. […]
A corresponding […] value RLU of each well was obtained by reading in the Envision Plate-reader. […]
The biochemical activity of the compounds of the present invention was determined by the above experiment, and the measured GI50 values are shown in table 2: […]

TrkA = TrkA (Homo sapiens, UniProt P04629); assay: Inhibitory activity test for Trk kinases (γ-33P-ATP isotope test), TrkA; type: biochemical; settings: 33P-ATP 10 μM, 2 h reaction; read-out: Kinase IC50 TrkA
Method: (§5) Inhibitory Activity Test for Trk Kinases
(§6) In this experiment, the γ-^33P-ATP isotope test was used to test the inhibition effect of a compound on kinases TrkA, TrkB and TrkC, and the half maximal inhibitory concentration IC50 of the inhibitory activity of the compound on the enzymes was obtained.
(§7) A compound was dissolved in 100% DMSO to a particular concentration, and then the resulting solution was gradient-diluted by an automatic loading device to different concentrations of the test samples (DMSO dissolving solutions).
(§8) 3.1. The reaction substrate was diluted using the base reaction buffer;
(§9) 3.2. The kinase was added into the substrate solution and mixed gently and uniformly;
(§10) 3.3. The compounds of different concentrations diluted in 100% DMSO were added into the kinase solution using an automatic loading system, and incubated for 20 min at room temperature;
(§11) 3.4. ^33P-ATP (10 μM, 10 μCi/μl) was added at room temperature to initiate the kinase reaction, and the reaction was carried out for 2 h.
(§12) The reaction solution was subjected to an ion exchange filtration system to remove unreacted ATP and the generated ADP ions during the reaction. Then, the radiometric quantity of ^33P isotope in the substrate was detected.
(§13) The kinase activity in the system with the addition of the inhibitors of different concentrations was calculated from the radiometric quantity, to obtain the inhibitory effect of the compounds with different concentrations on the kinase activity. Fitting was performed using graphpad prism to obtain IC50 values of the compounds for inhibition.

TrkC = TrkC (Homo sapiens, UniProt Q16288); assay: Inhibitory activity test for Trk kinases (γ-33P-ATP isotope test), TrkC; type: biochemical; settings: 33P-ATP 10 μM, 2 h reaction; read-out: Kinase IC50 TrkC
Method: as §5, §6, §7, §8, §9, §10, §11, §12, §13

TrkB = TrkB (Homo sapiens, UniProt Q16620); assay: Inhibitory activity test for Trk kinases (γ-33P-ATP isotope test), TrkB; type: biochemical; settings: 33P-ATP 10 μM, 2 h reaction; read-out: Kinase IC50 TrkB
Method: as §5, §6, §7, §8, §9, §10, §11, §12, §13

BaF3-LMNA-NTRK1 = assay: Growth inhibition test, CellTiter-Glo, BaF3-LMNA-NTRK1 cells; type: cell-based; settings: 72 hours incubation, read-out: Cell GI50 BaF3-LMNA-NTRK1
Method: as §1, §2
as §3, with “In addition, an equal volume of DMSO solvent was used as a blank control. With 10 concentration gradients, the plate was stored in vacuum at −20° C.” left out
as §4, with “added.” for “added. The plate was allowed to stand for 10 min, and read in the Envision Plate-Reader.”

Sequence of TrkC (Q16288 32-839, species assumed): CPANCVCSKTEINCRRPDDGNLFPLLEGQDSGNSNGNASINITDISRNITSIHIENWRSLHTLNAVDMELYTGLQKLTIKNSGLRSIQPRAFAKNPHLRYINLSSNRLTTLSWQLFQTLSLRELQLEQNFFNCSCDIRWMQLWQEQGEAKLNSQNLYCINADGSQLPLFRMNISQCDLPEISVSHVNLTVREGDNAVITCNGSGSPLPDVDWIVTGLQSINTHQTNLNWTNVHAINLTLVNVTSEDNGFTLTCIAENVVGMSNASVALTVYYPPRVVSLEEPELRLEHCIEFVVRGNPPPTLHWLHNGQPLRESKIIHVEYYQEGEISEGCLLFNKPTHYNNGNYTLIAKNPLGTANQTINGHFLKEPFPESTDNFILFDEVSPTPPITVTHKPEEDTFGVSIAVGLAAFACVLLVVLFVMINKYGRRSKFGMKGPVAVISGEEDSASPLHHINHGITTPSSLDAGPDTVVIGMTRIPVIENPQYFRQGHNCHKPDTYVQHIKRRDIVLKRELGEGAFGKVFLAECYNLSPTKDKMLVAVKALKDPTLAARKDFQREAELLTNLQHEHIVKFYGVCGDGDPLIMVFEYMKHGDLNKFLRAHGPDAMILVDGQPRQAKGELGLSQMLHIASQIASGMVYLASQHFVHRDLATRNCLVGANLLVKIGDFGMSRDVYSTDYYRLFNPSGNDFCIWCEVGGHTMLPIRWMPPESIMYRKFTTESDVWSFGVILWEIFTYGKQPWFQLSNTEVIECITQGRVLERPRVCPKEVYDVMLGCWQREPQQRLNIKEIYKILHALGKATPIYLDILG
Sequence of TrkB (Q16620 32-822, species assumed): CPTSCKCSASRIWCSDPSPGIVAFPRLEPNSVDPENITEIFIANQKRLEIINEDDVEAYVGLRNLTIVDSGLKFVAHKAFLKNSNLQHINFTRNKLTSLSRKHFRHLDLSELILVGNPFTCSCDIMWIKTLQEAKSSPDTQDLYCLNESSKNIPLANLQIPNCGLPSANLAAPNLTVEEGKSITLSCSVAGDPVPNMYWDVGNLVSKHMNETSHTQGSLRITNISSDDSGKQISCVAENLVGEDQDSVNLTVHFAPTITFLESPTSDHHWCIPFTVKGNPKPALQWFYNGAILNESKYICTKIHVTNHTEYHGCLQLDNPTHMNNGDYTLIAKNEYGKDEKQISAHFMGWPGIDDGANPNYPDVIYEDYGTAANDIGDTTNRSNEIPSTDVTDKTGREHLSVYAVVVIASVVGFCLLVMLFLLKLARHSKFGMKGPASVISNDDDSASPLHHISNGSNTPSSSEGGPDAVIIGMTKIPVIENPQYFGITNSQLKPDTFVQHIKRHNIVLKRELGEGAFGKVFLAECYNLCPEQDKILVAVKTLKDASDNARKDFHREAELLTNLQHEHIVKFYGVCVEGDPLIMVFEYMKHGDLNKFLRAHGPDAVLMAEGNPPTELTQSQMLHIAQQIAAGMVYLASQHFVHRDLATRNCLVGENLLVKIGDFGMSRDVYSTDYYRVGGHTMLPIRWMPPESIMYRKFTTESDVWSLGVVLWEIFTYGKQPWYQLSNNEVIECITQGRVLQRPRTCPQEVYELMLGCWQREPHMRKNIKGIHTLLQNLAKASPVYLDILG
Sequence of TrkA (P04629 33-796, species assumed): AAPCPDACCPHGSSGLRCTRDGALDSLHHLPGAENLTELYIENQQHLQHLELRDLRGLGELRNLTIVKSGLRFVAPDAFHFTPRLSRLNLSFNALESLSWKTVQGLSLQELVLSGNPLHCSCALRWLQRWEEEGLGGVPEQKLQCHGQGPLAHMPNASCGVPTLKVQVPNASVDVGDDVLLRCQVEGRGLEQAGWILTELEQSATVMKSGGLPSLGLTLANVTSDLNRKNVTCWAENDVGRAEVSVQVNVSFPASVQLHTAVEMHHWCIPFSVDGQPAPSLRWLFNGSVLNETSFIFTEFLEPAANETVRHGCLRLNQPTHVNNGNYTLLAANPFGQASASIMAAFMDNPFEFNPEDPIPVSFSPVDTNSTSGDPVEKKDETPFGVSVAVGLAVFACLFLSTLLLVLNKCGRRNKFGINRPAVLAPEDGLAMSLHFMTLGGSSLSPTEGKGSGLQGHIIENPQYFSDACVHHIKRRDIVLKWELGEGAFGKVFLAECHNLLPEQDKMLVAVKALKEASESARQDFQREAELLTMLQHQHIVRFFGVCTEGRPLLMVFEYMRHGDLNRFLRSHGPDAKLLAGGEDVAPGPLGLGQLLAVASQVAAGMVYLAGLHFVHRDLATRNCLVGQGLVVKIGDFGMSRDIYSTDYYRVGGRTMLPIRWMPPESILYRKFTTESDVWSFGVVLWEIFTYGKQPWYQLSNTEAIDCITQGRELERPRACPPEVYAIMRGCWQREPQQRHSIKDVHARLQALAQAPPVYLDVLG

Remaining % (60 min) ([1]; human liver microsomes 0.5 mg/mL, compound 1 μmol/L, 37° C., 60 min): 52.26%
Negative control Remaining % (60 min) ([1]; human liver microsomes, negative control incubation, 60 min): 98.1%
half-life at 1 μmol/L ([1]; human, liver microsomes, pH 7.4): 1.11 h
microsomal CLint at 1 μmol/L ([1]; pH 7.4, human liver microsomes 0.5 mg/mL, compound 1 μmol/L, read-out: Clint (μL/min/mg protein)): 20.8 µL/min/mg
GI50 (BaF3-tel-NTRK1): 12 nM
IC50 (TrkA): 4.23 nM
IC50 (TrkC): 0.25 nM
IC50 (TrkB): 0.57 nM
GI50 (BaF3-LMNA-NTRK1): 15.1 nM
Compound: O=C1NN(C2CC2)CCc2ncc(F)cc2[C@H]2CCCN2c2ccn3ncc1c3n2 [Example 1, (R,I^3E,I^4E)-6-cyclopropyl-3^5-fluoro-6,7-diazepine-1(5,3)-pyrazolo[1,5-a]pyrimidine-3(3,2)-pyridine-2(1,2)-pyrrolidine cyclooctane-8-one]
